Data set [1] can be described thus: The drug is tested on Parabacteroides merdae strain: ATCC43184 for biotransformation. The drug concentrations were measured before and after a 12-h incubation by liquid-chromatography-coupled mass spectrometry (LC–MS). The conditions noted are these: 2 µM.
The nature of data set [2]: The drug is tested on Bacteroides sp. WH2 strain: WH2 for biotransformation. The drug concentrations were measured before and after a 12-h incubation by liquid-chromatography-coupled mass spectrometry (LC–MS). Particulars: bacteroides sp. wh2, 12 h, 2 µM.
The nature of data set [3]: The drug is tested on Ruminococcus lactaris strain: ATCC29176 for biotransformation. The drug concentrations were measured before and after a 12-h incubation by liquid-chromatography-coupled mass spectrometry (LC–MS). The conditions noted are these: 2 µM.
Data set [4] is described as follows: The drug is tested on Bacteroides uniformis strain: ATCC8492 for biotransformation. The drug concentrations were measured before and after a 12-h incubation by liquid-chromatography-coupled mass spectrometry (LC–MS). The conditions noted are these: 2 µM.
For data set [5] the following is noted: anaerostipes sp., 12 h, 2 µM.
Description: The drug is tested on Anaerostipes sp. strain: fecal isolate for biotransformation. The drug concentrations were measured before and after a 12-h incubation by liquid-chromatography-coupled mass spectrometry (LC–MS)
Data set [6] is described as follows: The drug is tested on Collinsella intestinalis strain: DSM13280 for biotransformation. The drug concentrations were measured before and after a 12-h incubation by liquid-chromatography-coupled mass spectrometry (LC–MS). Particulars: 2 µM.
The conditions of data set [7]: bifidobacterium adolescentis, 12 h, 2 µM.
Description: The drug is tested on Bifidobacterium adolescentis strain: ATCC 15703 for biotransformation. The drug concentrations were measured before and after a 12-h incubation by liquid-chromatography-coupled mass spectrometry (LC–MS)
Data set [8] in a line: The drug is tested on Bacteroides xylanisolvens strain: DSM18836 for biotransformation. The drug concentrations were measured before and after a 12-h incubation by liquid-chromatography-coupled mass spectrometry (LC–MS). The conditions noted are these: 2 µM.
The conditions of data set [9]: bacteroides fragilis, 12 h, 2 µM.
Description: The drug is tested on Bacteroides fragilis strain: 3397 (T10) for biotransformation. The drug concentrations were measured before and after a 12-h incubation by liquid-chromatography-coupled mass spectrometry (LC–MS)
Data set [10] is described as follows: The drug is tested on Dorea formicigenerans strain: ATCC27755 for biotransformation. The drug concentrations were measured before and after a 12-h incubation by liquid-chromatography-coupled mass spectrometry (LC–MS). The conditions noted are these: 2 µM.
For data set [11] the following is noted: bacteroides eggerthii, 12 h, 2 µM.
Description: The drug is tested on Bacteroides eggerthii strain: DSM20697 for biotransformation. The drug concentrations were measured before and after a 12-h incubation by liquid-chromatography-coupled mass spectrometry (LC–MS)
Data set [12] is described as follows: The drug is tested on Bacteroides fragilis strain: HMW610 for biotransformation. The drug concentrations were measured before and after a 12-h incubation by liquid-chromatography-coupled mass spectrometry (LC–MS). Particulars: 2 µM.
For data set [13] the following is noted: segatella copri, 12 h, 2 µM.
Description: The drug is tested on Prevotella copri strain: DSM18205 for biotransformation. The drug concentrations were measured before and after a 12-h incubation by liquid-chromatography-coupled mass spectrometry (LC–MS)
Data set [14] is described as follows: The drug is tested on Clostridium scindens strain: ATCC35704 for biotransformation. The drug concentrations were measured before and after a 12-h incubation by liquid-chromatography-coupled mass spectrometry (LC–MS). Particulars: 2 µM.
The nature of data set [15]: The drug is tested on Odoribacter splanchnicus strain: fecal isolate for biotransformation. The drug concentrations were measured before and after a 12-h incubation by liquid-chromatography-coupled mass spectrometry (LC–MS). The conditions noted are these: 2 µM.
For data set [16] the following is noted: bacteroides intestinalis, 12 h, 2 µM.
Description: The drug is tested on Bacteroides intestinalis strain: DSM17393 for biotransformation. The drug concentrations were measured before and after a 12-h incubation by liquid-chromatography-coupled mass spectrometry (LC–MS)
The conditions of data set [17]: parabacteroides johnsonii, 12 h, 2 µM.
Description: The drug is tested on Parabacteroides johnsonii strain: DSM18315 for biotransformation. The drug concentrations were measured before and after a 12-h incubation by liquid-chromatography-coupled mass spectrometry (LC–MS)
The nature of data set [18]: The drug is tested on Clostridium sporogenes strain: ATCC15579 for biotransformation. The drug concentrations were measured before and after a 12-h incubation by liquid-chromatography-coupled mass spectrometry (LC–MS). Particulars: 2 µM.
Data set [19] can be described thus: The drug is tested on Clostridium sp. strain: fecal isolate for biotransformation. The drug concentrations were measured before and after a 12-h incubation by liquid-chromatography-coupled mass spectrometry (LC–MS). The conditions noted are these: 2 µM.

With `CC(C)(C)NCC(O)COc1cccc2c1CC(O)C(O)C2` (configuration not stated) [NADOLOL], the “Bacterial Biotransformation” value in data set [1], in data set [2], in data set [3], in [4], in data set [5] and in data set [6] was “Compound NOT metabolized” in each case. Further, the “Bacterial Biotransformation” value in data set [7], in data set [8], in [9], in data set [10], in [11] and in [12] was “Compound NOT metabolized” each time. For the same molecule, the “Bacterial Biotransformation” value in [13], in data set [14], in [15], in [16], in [17] and in data set [18] was “Compound NOT metabolized” each time. Further, the “Bacterial Biotransformation” value in data set [19] was “Compound NOT metabolized”.

In the case of `C=C[C@H]1CN2CC[C@H]1C[C@H]2[C@H](O)c1ccnc2ccc(OC)cc12.C=C[C@H]1CN2CC[C@H]1C[C@H]2[C@H](O)c1ccnc2ccc(OC)cc12.O.O.O=S(=O)(O)O` [QUININE SULFATE], the “Bacterial Biotransformation” value in [2], in [4], in data set [5], in data set [6], in data set [7] and in data set [8] was “Compound NOT metabolized” throughout. Further, the “Bacterial Biotransformation” value in data set [10], in data set [11], in data set [13], in [15], in data set [16] and in [17] was “Compound NOT metabolized” in each case.

With `CCN(CC)CCNC(=O)c1cc(S(C)(=O)=O)ccc1OC` [TIAPRIDE], the “Bacterial Biotransformation” value in data set [1], in data set [2], in [3], in data set [4], in data set [5] and in data set [6] was “Compound NOT metabolized” each time. Besides, the “Bacterial Biotransformation” value in data set [7], in [10], in data set [12], in data set [14], in data set [15] and in data set [16] was “Compound NOT metabolized” in each case. Further, the “Bacterial Biotransformation” value in data set [17], in data set [18] and in data set [19] was “Compound NOT metabolized” in each case.

Take `O=C(NC(Cc1cc(=O)[nH]c2ccccc12)C(=O)O)c1ccc(Cl)cc1` (configuration not stated) [REBAMIPIDE]: the “Bacterial Biotransformation” value in [1] is recorded as “Compound NOT metabolized”; in data set [3], “Compound NOT metabolized”; in [4], “Compound metabolized”; in data set [5] it was “Compound NOT metabolized”; in [6] it was “Compound NOT metabolized”; in data set [7], “Compound NOT metabolized”. Also, the “Bacterial Biotransformation” value is recorded as “Compound metabolized” in [8]; “Compound NOT metabolized” in [9]; “Compound NOT metabolized” in data set [10]; “Compound NOT metabolized” in data set [11]; “Compound metabolized” in data set [12]; “Compound NOT metabolized” in data set [13]. Besides, the “Bacterial Biotransformation” value in [14], in data set [15], in data set [16], in [17] and in data set [19] was “Compound NOT metabolized” in each case.

Regarding `CC(C)(C)NC[C@H](O)COc1ccccc1C1CCCC1.CC(C)(C)NC[C@H](O)COc1ccccc1C1CCCC1.O=S(=O)(O)O` [PENBUTOLOL SULFATE], the “Bacterial Biotransformation” value in data set [1] is listed as “Compound NOT metabolized”; in data set [2], “Compound NOT metabolized”; in [3], “Compound NOT metabolized”; in [4], “Compound metabolized”; in [5] it was “Compound NOT metabolized”; in data set [6] it was “Compound NOT metabolized”. Further, the “Bacterial Biotransformation” value in data set [7], in data set [8], in data set [10], in [11], in data set [12] and in data set [14] was “Compound NOT metabolized” in each case. The “Bacterial Biotransformation” value is “Compound NOT metabolized” in data set [15], “Compound NOT metabolized” in data set [16], “Compound NOT metabolized” in [18] and “Compound metabolized” in data set [19].

With `COc1c2occc2cc2ccc(=O)oc12` [METHOXSALEN], the “Bacterial Biotransformation” value in [4] was “Compound metabolized”; in data set [5], “Compound metabolized”; in data set [7], “Compound NOT metabolized”; in data set [8], “Compound metabolized”; in [10], “Compound NOT metabolized”; in data set [11], “Compound metabolized”. Further, the “Bacterial Biotransformation” value in data set [12] is reported as “Compound metabolized”; in [13], “Compound NOT metabolized”; in data set [14] it was “Compound NOT metabolized”; in data set [15], “Compound metabolized”; in data set [16], “Compound metabolized”; in data set [17], “Compound metabolized”. Further, the “Bacterial Biotransformation” value in data set [18] and in data set [19] was “Compound metabolized” throughout.

With `COc1ccc(/C=C/C(=O)Nc2ccccc2C(=O)O)cc1OC`, the “Bacterial Biotransformation” value in [1] is “Compound NOT metabolized”; in data set [2] it was “Compound metabolized”; in data set [3], “Compound NOT metabolized”; in data set [4], “Compound NOT metabolized”; in data set [5], “Compound NOT metabolized”; in [6], “Compound NOT metabolized”. The “Bacterial Biotransformation” value is on record as “Compound NOT metabolized” in [7]; “Compound NOT metabolized” in data set [8]; “Compound NOT metabolized” in data set [9]; “Compound NOT metabolized” in data set [10]; “Compound NOT metabolized” in data set [11]; “Compound metabolized” in [12]. Also, the “Bacterial Biotransformation” value is “Compound metabolized” in [13]; “Compound NOT metabolized” in data set [14]; “Compound NOT metabolized” in [15]; “Compound NOT metabolized” in data set [16]; “Compound NOT metabolized” in data set [17]; “Compound NOT metabolized” in data set [18]. In addition, the “Bacterial Biotransformation” value in data set [19] is listed as “Compound NOT metabolized”.

Values taken from ChEMBL document CHEMBL5303573, “Mapping human microbiome drug metabolism by gut bacteria and their genes” (Nature, 2019).
